Measurements: PubChem BioAssay (NCI)
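These data come from cells grown in 96-well plates and exposed to compound for 48 hours at five concentrations. The concentration for full growth arrest is given as TGI.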

Assays:
Assay in all cases: NCI anticancer screen, dose series, 48 h
A498 renal = system: A498 renal
CAKI-1 renal = system: CAKI-1 renal
HCT-15 colon = system: HCT-15 colon
HOP-62 NSCLC = system: HOP-62 NSCLC
K-562 leukemia = system: K-562 leukemia
KM12 colon = system: KM12 colon
MCF7 breast = system: MCF7 breast
NCI-H23 lung = system: NCI-H23 lung
OVCAR-4 ovarian = system: OVCAR-4 ovarian
OVCAR-5 ovarian = system: OVCAR-5 ovarian
RXF 393 renal = system: RXF 393 renal
SF-295 CNS = system: SF-295 CNS
SK-MEL-2 melanoma = system: SK-MEL-2 melanoma
SN12C renal = system: SN12C renal
SNB-19 CNS = system: SNB-19 CNS
SNB-75 CNS = system: SNB-75 CNS
UACC-257 melanoma = system: UACC-257 melanoma
UO-31 renal = system: UO-31 renal
MOLT-4 leukemia = system: MOLT-4 leukemia
RPMI-8226 leukemia = system: RPMI-8226 leukemia

SMILES	TGI (A498 renal) [µM]	TGI (CAKI-1 renal) [µM]	TGI (HCT-15 colon) [µM]	TGI (HOP-62 NSCLC) [µM]	TGI (K-562 leukemia) [µM]	TGI (KM12 colon) [µM]	TGI (MCF7 breast) [µM]	TGI (NCI-H23 lung) [µM]	TGI (OVCAR-4 ovarian) [µM]	TGI (OVCAR-5 ovarian) [µM]	TGI (RXF 393 renal) [µM]	TGI (SF-295 CNS) [µM]	TGI (SK-MEL-2 melanoma) [µM]	TGI (SN12C renal) [µM]	TGI (SNB-19 CNS) [µM]	TGI (SNB-75 CNS) [µM]	TGI (UACC-257 melanoma) [µM]	TGI (UO-31 renal) [µM]	TGI (MOLT-4 leukemia) [µM]	TGI (RPMI-8226 leukemia) [µM]
CCOP(=O)(OCC)/C(C#N)=C/c1cn(C)cn1	> 100	> 100	> 100	> 100	> 100	> 100	> 100	> 100	> 100	> 100	> 100	> 100	> 100	> 100	> 100	> 100	> 100	> 100	–	–
CC(C)OP(=O)(OC(C)C)/C(I)=N/Nc1ccc([N+](=O)[O-])cc1	> 100	> 100	> 100	> 100	> 100	> 100	–	> 100	> 100	> 100	–	> 100	> 100	> 100	> 100	> 100	> 100	> 100	> 100	> 100
C[Si](C)(OCCS(=O)(=O)O)C1(Cc2cccc3ccccc23)S(=O)(=O)OCCOS1(=O)=O	30.8	31.4	52.1	45	> 100	29.5	39.5	96	52.3	33.1	–	69.9	46.3	41.3	42.9	55.1	80.1	32.4	> 100	57
Cc1ccc(N=N/C(=N\NC(=O)c2ccc(C)cc2)c2ccc(N(CCC#N)CCC#N)cc2C)cc1	> 100	> 100	> 100	> 100	> 100	30.3	> 100	> 100	> 100	> 100	> 100	> 100	51.6	–	> 100	> 100	> 100	> 100	> 100	> 100
Cc1ccc(N2Cc3c(ccc4ccccc34)OP2(=O)Oc2ccc(Cl)c(C)c2)cc1 (centres undefined)	> 100	> 100	> 100	> 100	> 100	> 100	> 100	> 100	> 100	> 100	> 100	> 100	> 100	> 100	> 100	> 100	> 100	> 100	> 100	> 22.3
COc1ccc(-n2cnnc2-c2nsc3ccccc23)cc1	–	–	> 100	> 100	> 100	> 100	–	> 100	> 100	> 100	65.8	–	> 100	> 100	> 100	59.2	> 100	> 100	> 100	> 100
CC1=Nc2nc(Cl)cn2C(=O)C1(Cl)Cl	> 10	> 10	> 10	> 10	> 10	> 10	> 10	> 10	> 10	> 10	> 10	> 10	> 10	> 10	> 10	> 10	–	> 10	> 10	> 10
CC(NC(=O)C(C)NC(=O)C(N)CCP(C)(=O)O)C(=O)O (centres undefined)	> 100	> 100	> 100	> 100	> 100	> 100	> 100	> 100	> 100	> 100	> 100	> 100	> 100	> 100	> 100	> 100	> 100	> 100	> 100	> 100
